Measured values published in ChEMBL document CHEMBL5154914, “Discovery of Pentacyclic Triterpenoid PROTACs as a Class of Effective Hemagglutinin Protein Degraders” (J Med Chem, 2022).
Calls of active or inactive are those of the source. No cut-off for these calls is given here.

Experiments:
[1] = molecular target: T1, von Hippel-Lindau disease tumor suppressor/Hemagglutinin (Homo sapiens, UniProt P03452+P40337); experiment: Protac activity at VHL (unknown origin)/influenza A hemagglutinin transfected in HEK293T cells assessed as degradation of hemagglutinin incubated for 24 hrs by Western blot analysis; type: cell-based; settings: dose 0.03-33.3 µM, DDE = dose-dependent effect
Target sequence in this assay (P03452 whole entry, looked up): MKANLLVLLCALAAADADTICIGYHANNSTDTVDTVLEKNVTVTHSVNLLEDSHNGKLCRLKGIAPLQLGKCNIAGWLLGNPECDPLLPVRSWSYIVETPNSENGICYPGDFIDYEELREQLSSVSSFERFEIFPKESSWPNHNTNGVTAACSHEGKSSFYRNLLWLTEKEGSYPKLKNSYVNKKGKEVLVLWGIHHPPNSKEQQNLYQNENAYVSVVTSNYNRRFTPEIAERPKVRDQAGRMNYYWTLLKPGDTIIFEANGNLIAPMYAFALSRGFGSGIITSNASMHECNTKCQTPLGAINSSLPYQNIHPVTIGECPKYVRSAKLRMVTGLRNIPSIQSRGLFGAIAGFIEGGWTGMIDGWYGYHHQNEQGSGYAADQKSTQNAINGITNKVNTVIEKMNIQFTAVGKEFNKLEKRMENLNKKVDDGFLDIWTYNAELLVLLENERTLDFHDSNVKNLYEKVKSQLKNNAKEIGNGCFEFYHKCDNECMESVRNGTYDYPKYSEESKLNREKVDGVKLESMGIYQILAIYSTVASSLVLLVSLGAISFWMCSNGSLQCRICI
Target sequence in this assay (P40337 whole entry, looked up): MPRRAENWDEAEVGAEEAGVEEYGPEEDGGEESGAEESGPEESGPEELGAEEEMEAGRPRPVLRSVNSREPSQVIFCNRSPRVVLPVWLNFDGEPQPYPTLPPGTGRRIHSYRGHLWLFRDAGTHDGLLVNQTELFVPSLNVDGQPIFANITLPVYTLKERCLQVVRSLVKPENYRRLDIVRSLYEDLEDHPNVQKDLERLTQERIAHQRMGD

[2] = molecular target: T1, von Hippel-Lindau disease tumor suppressor/Hemagglutinin; experiment: Protac activity at VHL (unknown origin)/influenza A hemagglutinin transfected in HEK293T cells assessed as degradation of hemagglutinin at 33 uM incubated for 24 hrs by Western blot analysis relative to control; type: cell-based
Target sequence in this assay (P03452 whole entry, looked up): as the sequence (P03452 whole entry, looked up) above
Target sequence in this assay (P40337 whole entry, looked up): as the sequence (P40337 whole entry, looked up) above

[3] = molecular target: T1, von Hippel-Lindau disease tumor suppressor/Hemagglutinin; experiment: Protac activity at VHL (unknown origin)/influenza A hemagglutinin transfected in HEK293T cells assessed as degradation of hemagglutinin incubated for 12 hrs by Western blot analysis; type: cell-based; settings: dose 0.39-25 µM, DDE = dose-dependent effect
Target sequence in this assay (P03452 whole entry, looked up): as the sequence (P03452 whole entry, looked up) above
Target sequence in this assay (P40337 whole entry, looked up): as the sequence (P40337 whole entry, looked up) above

[4] = test system: Influenza A virus; experiment: Antiviral activity against Influenza A A/WSN/33 (H1N1) infected in dog MDCK cells assessed as inhibition of viral induced cytopathic effect incubated for 40 hrs by CellTiter-Glo assay; type: functional, organism-based
[5] = molecular target: Hemagglutinin (Influenza A virus, UniProt B4URE7); experiment: Binding affinity to recombinant influenza A hemagglutinin assessed as dissociation constant by SPR assay
[6] = molecular target: T2, Protein cereblon/Hemagglutinin (Influenza A virus) (UniProt B4URE7+Q96SW2); experiment: Protac activity at CRBN (unknown origin)/Influenza A hemagglutinin transfected in HEK293T cells assessed as induction of hemagglutinin degradation at 0.78 uM incubated for 24 hrs by Western blot analysis relative to control; type: cell-based
[7] = molecular target: T2, Protein cereblon/Hemagglutinin (Influenza A virus); experiment: Protac activity at CRBN (unknown origin)/Influenza A hemagglutinin transfected in HEK293T cells assessed as induction of hemagglutinin degradation at 50 uM incubated for 12 hrs by Western blot analysis relative to control; type: cell-based
[8] = Oral bioavailability in BALB/c mouse infected with Influenza A A/WSN/33 (H1N1) virus at 50 mg/kg measured after 24 hrs by LC-MS analysis; type: ADME, organism-based; settings: in vivo
[9] = Tmax in BALB/c mouse infected with Influenza A A/WSN/33 (H1N1) virus at 50 mg/kg, po administered as single dose measured after 24 hrs by LC-MS analysis; type: ADME, organism-based; settings: in vivo
[10] = Elimination half life in BALB/c mouse infected with Influenza A A/WSN/33 (H1N1) virus at 50 mg/kg, po measured after 24 hrs by LC-MS analysis; type: ADME, organism-based; settings: in vivo, read-out: LambdaZ (converted)
[11] = Elimination half life in BALB/c mouse infected with Influenza A A/WSN/33 (H1N1) virus at 10 mg/kg, iv measured after 24 hrs by LC-MS analysis; type: ADME, organism-based; settings: in vivo, read-out: LambdaZ (converted)
[12] = molecular target: von Hippel-Lindau disease tumor suppressor (Homo sapiens, UniProt P40337); experiment: Binding affinity to human recombinant VHL assessed as dissociation constant by SPR assay
Sequence of von Hippel-Lindau disease tumor suppressor (P40337 whole entry): as the sequence (P40337 whole entry, looked up) above

[13] = AUCinfinity in BALB/c mouse infected with Influenza A A/WSN/33 (H1N1) virus at 10 mg/kg, iv measured after 24 hrs by LC-MS analysis; type: ADME, organism-based; design: dose 10 mg/kg, time 24 hrs, route iv; settings: in vivo
[14] = molecular target: T1, von Hippel-Lindau disease tumor suppressor/Hemagglutinin; experiment: Protac activity at VHL (unknown origin)/influenza A hemagglutinin transfected in HEK293T cells assessed as degradation of hemagglutinin incubated for 10 hrs by Western blot analysis; type: cell-based
[15] = test system: HEK-293T; experiment: Cytotoxicity against HEK293T cells assessed as reduction in cell viability at 50 uM incubated for 36 hrs by Celltiter-Glo assay; type: toxicity, cell-based; settings: human
[16] = molecular target: T1, von Hippel-Lindau disease tumor suppressor/Hemagglutinin; experiment: Protac activity at VHL (unknown origin)/influenza A hemagglutinin transfected in HEK293T cells assessed as degradation of hemagglutinin incubated for 7 to 10 hrs by Western blot analysis; type: cell-based; settings: time 7-10 hrs
Target sequence in this assay (P03452 whole entry, looked up): as the sequence (P03452 whole entry, looked up) above
Target sequence in this assay (P40337 whole entry, looked up): as the sequence (P40337 whole entry, looked up) above

[17] = molecular target: T1, von Hippel-Lindau disease tumor suppressor/Hemagglutinin; experiment: Protac activity at VHL (unknown origin)/influenza A hemagglutinin transfected in HEK293T cells assessed as accumulation of ubiquitinated hemagglutinin at 20 uM preincubated for 4 hrs followed by proteosome inhibitor, MG-132 addition and measured after 4 hrs by Immunoprecipitation analysis; type: cell-based
Target sequence in this assay (P03452 whole entry, looked up): as the sequence (P03452 whole entry, looked up) above
Target sequence in this assay (P40337 whole entry, looked up): as the sequence (P40337 whole entry, looked up) above

[18] = molecular target: T1, von Hippel-Lindau disease tumor suppressor/Hemagglutinin; experiment: Protac activity at VHL (unknown origin)/influenza A hemagglutinin transfected in HEK293T cells assessed as reduction in hemagglutinin level at 10 uM by immunoblotting analysis relative to control; type: cell-based; design: scale not given: the % may be the effect or the level left
Target sequence in this assay (P03452 whole entry, looked up): as the sequence (P03452 whole entry, looked up) above
Target sequence in this assay (P40337 whole entry, looked up): as the sequence (P40337 whole entry, looked up) above

[19] = test system: Influenza A virus; experiment: Antiviral activity against Influenza A A/WSN/33 (H1N1) infected in HEK293T cells incubated for 12 hrs; type: functional, organism-based; settings: HEK-293T
[20] = test system: Influenza A virus; experiment: Antiviral activity against Influenza A A/California/08/2009 (H1N1) infected in HEK293T cells incubated for 12 hrs; type: functional, organism-based; settings: HEK-293T
[21] = test system: Influenza A virus; experiment: Antiviral activity against Influenza A A/WSN/33 (H1N1) infected in BALB/c mouse assessed as recovery of body weight at 10 to 20 mg/kg/day, iv administered for 5 days starting from 2 hrs post infection and measured daily for 14 days; type: functional, organism-based; settings: dose 10-20 mg/kg/day, time 14.0 day
[22] = test system: Influenza A virus; experiment: Antiviral activity against Influenza A A/Aichi/2/68 (H3N2) infected in HEK293T cells incubated for 12 hrs; type: functional, organism-based; settings: HEK-293T
[23] = test system: Influenza B virus; experiment: Antiviral activity against Influenza B B/Florida/4/2006 infected in HEK293T cells incubated for 12 hrs; type: functional, organism-based; settings: B/Florida/4/2006, HEK-293T
[24] = Cmax in BALB/c mouse infected with Influenza A A/WSN/33 (H1N1) virus at 10 mg/kg, iv measured after 24 hrs by LC-MS analysis; type: ADME, organism-based; design: time 24 hrs, dose 10 mg/kg, route iv; settings: in vivo
[25] = Cmax in BALB/c mouse infected with Influenza A A/WSN/33 (H1N1) virus at 50 mg/kg, po measured after 24 hrs by LC-MS analysis; type: ADME, organism-based; design: time 24 hrs, dose 50 mg/kg, route po; settings: in vivo
[26] = AUCinfinity in BALB/c mouse infected with Influenza A A/WSN/33 (H1N1) virus at 50 mg/kg, po measured after 24 hrs by LC-MS analysis; type: ADME, organism-based; design: time 24 hrs, dose 50 mg/kg, route po; settings: in vivo
[27] = MRT in BALB/c mouse infected with Influenza A A/WSN/33 (H1N1) virus at 10 mg/kg, iv measured after 24 hrs by LC-MS analysis; type: ADME, organism-based; settings: in vivo
[28] = MRT in BALB/c mouse infected with Influenza A A/WSN/33 (H1N1) virus at 50 mg/kg, po measured after 24 hrs by LC-MS analysis; type: ADME, organism-based; settings: in vivo
[29] = Acute toxicity in BALB/c mouse infected with Influenza A A/WSN/33 (H1N1) virus assessed as decrease in body weight at 10 to 20 mg/kg/day, iv administered for 5 days starting from 2 hrs post infection and measured daily for 14 days; type: organism-based; settings: in vivo, 336 h, dose 10-20 mg/kg/day, time 14 day
[30] = Acute toxicity in BALB/c mouse infected with Influenza A A/WSN/33 (H1N1) virus assessed as mortality at 10 to 20 mg/kg/day, iv administered for 5 days starting from 2 hrs post infection and measured daily for 14 days; type: organism-based; settings: in vivo, 336 h, dose 10-20 mg/kg/day, time 14 day
[31] = test system: Influenza A virus; experiment: Antiviral activity against Influenza A A/WSN/33 (H1N1) infected in BALB/c mouse assessed as plaque reduction at 10 to 20 mg/kg/day, iv incubated for 4 to 16 days (reference value: 2.7x10^6 PFU/g); type: functional; settings: dose 10-20 mg/kg/day, time 4-16 day
[32] = test system: Influenza A virus; experiment: Antiviral activity against Influenza A A/WSN/33 (H1N1) infected in BALB/c mouse assessed as reduction in virus induced lung lesion at 10 mg/kg, iv measured on day 4 by histopathological staining based analysis; type: functional, organism-based; settings: time 4.0 day
[33] = test system: Influenza A virus; experiment: Antiviral activity against Influenza A A/WSN/33 (H1N1) infected in BALB/c mouse assessed as reduction in virus induced inflammation at 10 mg/kg, iv measured on day 4 by histopathological staining based analysis; type: functional, organism-based; settings: time 4.0 day
[34] = test system: Influenza A virus; experiment: Antiviral activity against Influenza A A/WSN/33 (H1N1) infected in BALB/c mouse assessed as fold reduction plaque count at 10 to 20 mg/kg/day, iv incubated for 4 to 16 days relative to control; type: functional; settings: dose 10-20 mg/kg/day, time 4-16 day
[35] = Cytotoxicity against HEK293T cells assessed as cell viability at 50 uM incubated for 36 hrs by Celltiter-Glo assay relative to control; type: toxicity, cell-based, HEK-293T; settings: human, read-out: Activity
[36] = test system: Influenza A virus; experiment: Antiviral activity against influenza A A/WSN/33 (H1N1) infected in HEK293T cells assessed as reduction in hemagglutinin level at virion replication and release stage at 25 uM mesured after 3 to 9 hrs by immunofluorescence based confocal microscopic analysis; type: functional, organism-based; settings: time 3-9 hrs
[37] = molecular target: T1, von Hippel-Lindau disease tumor suppressor/Hemagglutinin; experiment: Protac activity at VHL (unknown origin)/influenza A hemagglutinin transfected in HEK293T cells assessed as degradation of hemagglutinin at 0.39 to 25 uM incubated for 10 hrs by Western blot analysis; type: cell-based; settings: dose 0.39-25 µM

## Cc1ncsc1-c1ccc(CNC(=O)[C@@H]2C[C@@H](O)CN2C(=O)[C@@H](NC(=O)CCOCCNC(=O)[C@]23CCC(C)(C)C[C@H]2C2=CC[C@@H]4[C@@]5(C)CC[C@H](O)C(C)(C)[C@@H]5CC[C@@]4(C)[C@]2(C)CC3)C(C)(C)C)cc1
[1]
  Activity: Dde
[2]
  Activity: 50%
[3]
  Activity: Dde

## CC1(C)CC[C@]2(C(=O)O)CC[C@]3(C)C(=CC[C@@H]4[C@@]5(C)CC[C@H](O)C(C)(C)[C@@H]5CC[C@]43C)[C@@H]2C1 [OLEANOLIC_ACID]
[4]
  IC50: > 200 µM
[5]
  Kd: 10.9 µM

## CC1(C)CC[C@]2(C(=O)NCCOCCOCCOCCNc3cccc4c3C(=O)N(C3CCC(=O)NC3=O)C4=O)CC[C@]3(C)C(=CC[C@@H]4[C@@]5(C)CC[C@H](O)C(C)(C)[C@@H]5CC[C@]43C)[C@@H]2C1 (some centres undefined)
[6]
  Activity: > 50%
[7]
  Activity: 20%

## Cc1ncsc1-c1ccc(CNC(=O)[C@@H]2CCCN2C(=O)[C@@H](NC(=O)CCOCCOCCOCCNC(=O)[C@]23CCC(C)(C)C[C@H]2C2=CC[C@@H]4[C@@]5(C)CC[C@H](O)C(C)(C)[C@@H]5CC[C@@]4(C)[C@]2(C)CC3)C(C)(C)C)cc1
[8]
  bioavailability: 6.8%
[9]
  Tmax: 0.5 h
[10]
  half-life: 2.63 h
[11]
  half-life: 2.87 h
[12]
  Kd: 9.25 µM
[5]
  Kd: 3.18 µM
[13]
  AUC(0-inf): 7450 ng·h/mL
[1]
  Activity: Dde
[2]
  Activity: 50%
[14]
  DC50: 1.44 µM
[3]
  Activity: Dde
[15]
  Activity: 85%
[16]
  Activity: Active
[17]
  Activity: Active
[18]
  Activity: 60%
[19]
  EC50: 4.53 µM
[20]
  EC50: 5.98 µM
[21]
  Activity: Active
[22]
  EC50: 8.98 µM
[23]
  EC50: > 25 µM
[24]
  Cmax: 2070 ng/mL
[25]
  Cmax: 2070 ng/mL
[26]
  AUC(0-inf): 2550 ng·h/mL
[27]
  MRT: 0.98 h
[28]
  MRT: 1.56 h
[29]
  Activity: Non-Toxic
[30]
  Activity: Non-Toxic
[31]
  Activity: 8.1 10^5PFU/g
[32]
  Activity: Active
[33]
  Activity: Active
[34]
  fold change (FC): 3.5
[35]
  viability at 36 h, 50 µM: > 85%
[36]
  Activity: Active

## Cc1ncsc1-c1ccc(CNC(=O)[C@@H]2C[C@@H](O)CN2C(=O)[C@@H](NC(=O)CCOCCOCCOCCOCCOCCNC(=O)[C@]23CCC(C)(C)C[C@H]2C2=CC[C@@H]4[C@@]5(C)CC[C@H](O)C(C)(C)[C@@H]5CC[C@@]4(C)[C@]2(C)CC3)C(C)(C)C)cc1
[15]
  Activity: Toxic

## Cc1ncsc1-c1ccc(CNC(=O)[C@@H]2CCCN2C(=O)[C@@H](N)C(C)(C)C)cc1
[12]
  Kd: 4.97 µM

## Cc1ncsc1-c1ccc(CNC(=O)[C@@H]2C[C@@H](O)CN2C(=O)[C@@H](NC(=O)CCOCCOCCOCCOCCOCCOCCOCCNC(=O)[C@]23CCC(C)(C)C[C@H]2C2=CC[C@@H]4[C@@]5(C)CC[C@H](O)C(C)(C)[C@@H]5CC[C@@]4(C)[C@]2(C)CC3)C(C)(C)C)cc1
[14]
  Activity: Active
[15]
  Activity: Toxic
[37]
  Activity: Active

## Cc1ncsc1-c1ccc(CNC(=O)[C@@H]2C[C@@H](O)CN2C(=O)[C@@H](NC(=O)CCOCCOCCOCCOCCOCCOCCOCCOCCOCCOCCNC(=O)[C@]23CCC(C)(C)C[C@H]2C2=CC[C@@H]4[C@@]5(C)CC[C@H](O)C(C)(C)[C@@H]5CC[C@@]4(C)[C@]2(C)CC3)C(C)(C)C)cc1
[15]
  Activity: Toxic

## Cc1ncsc1-c1ccc(CNC(=O)[C@@H]2C[C@@H](O)CN2C(=O)[C@@H](NC(=O)CCOCCOCCNC(=O)[C@]23CCC(C)(C)C[C@H]2C2=CC[C@@H]4[C@@]5(C)CC[C@H](O)C(C)(C)[C@@H]5CC[C@@]4(C)[C@]2(C)CC3)C(C)(C)C)cc1
[1]
  Activity: Dde
[2]
  Activity: 50%
[3]
  Activity: Dde
